From PubChem BioAssay AID328 (DTP/NCI, 2004)
Values joined by “and” are separate entries in the source; they are usually repeats but may differ in a detail not shown here. Equal entries are not always repeated. Toxic doses and inconclusive results are not listed.

System: BDF1 mice, P388 leukemia ip, median survival T/C
Experiment: NCI In Vivo Anticancer Drug Screen. Data for tumor model P388 Leukemia (intraperitoneal) in B6D2F1 (BDF1) mice
Conditions: endpoint: median survival time, higher = longer survival
Procedure, shortened: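 Each value expresses how treatment altered survival: treated-mouse outcome over vehicle-mouse outcome, both groups bearing the transplanted tumour.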

[1] = dose: 100.0 mg/kg/injection, schedule: Q04DX003 (ip), vehicle: Klucel (hydroxypropylcellulose) (HPC)
[2] = dose: 200.0 mg/kg/injection, schedule: Q01DX009 (ip), vehicle: Klucel (hydroxypropylcellulose) (HPC)
[3] = dose: 200.0 mg/kg/injection, schedule: Q04DX003 (ip), vehicle: Klucel (hydroxypropylcellulose) (HPC)
[4] = dose: 400.0 mg/kg/injection, schedule: Q04DX003 (ip), vehicle: Klucel (hydroxypropylcellulose) (HPC)
[5] = dose: 100.0 mg/kg/injection, schedule: Q04DX003 (ip), vehicle: saline with Tween-80
[6] = dose: 200.0 mg/kg/injection, schedule: Q04DX003 (ip), vehicle: saline with Tween-80
[7] = dose: 400.0 mg/kg/injection, schedule: Q04DX003 (ip), vehicle: saline with Tween-80
[8] = dose: 100.0 mg/kg/injection, schedule: Q04DX003 (ip), vehicle: saline
[9] = dose: 200.0 mg/kg/injection, schedule: Q04DX003 (ip), vehicle: saline

`O=[N+]([O-])c1ccc(C2OC2c2ccccc2)cc1` (stereo not drawn) was tested, and the T/C (dose: 50.0 mg/kg/injection, schedule: Q01DX009 (ip), vehicle: Klucel (hydroxypropylcellulose) (HPC)) was 122 % of control, the T/C (dose: 100.0 mg/kg/injection, schedule: Q01DX009 (ip), vehicle: Klucel (hydroxypropylcellulose) (HPC)) was 111 % of control and the T/C [1] was 95 % of control and 120 % of control. For the same compound, the T/C [2] was 111 % of control, the T/C [3] was 110 % of control and the T/C [4] was 91 % of control and 110 % of control.
With `CCCCCCCCCCCS(=O)(=O)C(CCOS(C)(=O)=O)COS(C)(=O)=O` (stereo not drawn) the T/C [1] was 95 % of control, the T/C [3] was 100 % of control and the T/C [4] was 100 % of control.
In the case of `CCN(CC)CC1CO1` (stereo not drawn), the T/C (dose: 12.5 mg/kg/injection, schedule: Q01DX009 (ip), vehicle: saline) is reported as 100 % of control.
`CCC(=O)OC1CC2C3CCC4=CC(=O)CCC4(C)C3CCC2(C)C1OC(=O)CC` (stereo not drawn) was tested, and the T/C [1] was 100 % of control, the T/C [2] was 109 % of control and the T/C [3] was 104 % of control. For the same compound, the T/C (dose: 400.0 mg/kg/injection, schedule: Q01DX009 (ip), vehicle: Klucel (hydroxypropylcellulose) (HPC)) was 91 % of control and 122 % of control and the T/C [4] was 104 % of control.
In the case of `CC(/C=C/c1ccccc1)=Nc1ccc(C)cc1`, the T/C [5] is reported as 104 % of control, the T/C [6] is reported as 101 % of control and the T/C [7] is reported as 104 % of control.
`OC12C3CCCC1CCCC2CCC3` (stereo not drawn) was tested, and the T/C [1] was 100 % of control and 108 % of control, the T/C (dose: 100.0 mg/kg/injection, schedule: Q04DX003 (ip), vehicle: saline sonified) was 108 % of control and the T/C [3] was 91 % of control and 100 % of control. For the same compound, the T/C (dose: 200.0 mg/kg/injection, schedule: Q04DX003 (ip), vehicle: saline sonified) was 90 % of control and 108 % of control, the T/C [4] was 100 % of control and the T/C (dose: 400.0 mg/kg/injection, schedule: Q04DX003 (ip), vehicle: saline sonified) was 109 % of control and 108 % of control.
For `CC#CCOCC1CO1` (stereo not drawn), the T/C (dose: 66.0 mg/kg/injection, schedule: Q01DX009 (ip), vehicle: saline with Tween-80) was 160 % of control, the T/C (dose: 100.0 mg/kg/injection, schedule: Q01DX009 (ip), vehicle: saline with Tween-80) was 115 % of control and the T/C [8] was 104 % of control. The T/C [9] was 100 % of control.
For `O=C(O)CCCCOc1ccc(N(CCCl)CCCl)cc1`, the T/C (dose: 50.0 mg/kg/injection, schedule: Q01DX001 (ip), vehicle: Klucel (hydroxypropylcellulose) (HPC)) was 174 % of control, the T/C (dose: 100.0 mg/kg/injection, schedule: Q01DX001 (ip), vehicle: Klucel (hydroxypropylcellulose) (HPC)) was 177 % of control and the T/C (dose: 200.0 mg/kg/injection, schedule: Q01DX001 (ip), vehicle: Klucel (hydroxypropylcellulose) (HPC)) was 155 % of control.
In the case of `Cc1cc(O)c2c(c1O)C(=O)c1ccccc1C2=O`, the T/C [8] is reported as 91 % of control, the T/C [9] is reported as 95 % of control and the T/C (dose: 400.0 mg/kg/injection, schedule: Q04DX003 (ip), vehicle: saline) is reported as 95 % of control.
With `CC[N+](CC)(CC)CCC[N+](CC)(CC)CC` the T/C (dose: 50.0 mg/kg/injection, schedule: Q01DX009 (ip), vehicle: water) was 89 % of control, the T/C (dose: 100.0 mg/kg/injection, schedule: Q04DX003 (ip), vehicle: water) was 109 % of control and the T/C (dose: 200.0 mg/kg/injection, schedule: Q04DX003 (ip), vehicle: water) was 90 % of control.
In the case of `COc1ccccc1/C=C(/C)[N+](=O)[O-]`, the T/C (dose: 10.0 mg/kg/injection, schedule: Q01DX010 (ip), vehicle: steriod suspending solution) is reported as 90 % of control, the T/C (dose: 14.0 mg/kg/injection, schedule: Q01DX010 (ip), vehicle: steriod suspending solution) is reported as 110 % of control and the T/C (dose: 22.0 mg/kg/injection, schedule: Q01DX010 (ip), vehicle: steriod suspending solution) is reported as 120 % of control. For the same compound, the T/C (dose: 33.0 mg/kg/injection, schedule: Q01DX010 (ip), vehicle: carboxymethylcellulose (CMC)) was 175 % of control, the T/C (dose: 33.0 mg/kg/injection, schedule: Q01DX010 (ip), vehicle: steriod suspending solution) was 120 % of control and the T/C (dose: 50.0 mg/kg/injection, schedule: Q01DX010 (ip), vehicle: steriod suspending solution) was 120 % of control. For the same compound, the T/C (dose: 70.0 mg/kg/injection, schedule: Q01DX010 (ip), vehicle: steriod suspending solution) was 110 % of control and the T/C (dose: 75.0 mg/kg/injection, schedule: Q01DX010 (ip), vehicle: carboxymethylcellulose (CMC)) was 95 % of control.
For `CC(C)c1nc(-c2ccccc2)c(-c2ccccc2)[nH]1`, the T/C [5] was 100 % of control, the T/C [6] was 104 % of control and the T/C [7] was 100 % of control.
